Assay results as given in patent US8338465B2, “Cyclic carboxylic acid rhodanine derivatives for the treatment and prevention of tuberculosis” (priority 2006, dated 2012).

Each compound was assayed against T1, dihydrolipoamide acyltransferase (DlaT) (Mycobacterium tuberculosis, UniProt P9WIS7) (assay: DlaT inhibition (Dlat IC50); DTNB peroxidase assay with Lpd, DlaT and AhpD). Settings: Dlat IC50 category.
T1 sequence (P9WIS7 1-553): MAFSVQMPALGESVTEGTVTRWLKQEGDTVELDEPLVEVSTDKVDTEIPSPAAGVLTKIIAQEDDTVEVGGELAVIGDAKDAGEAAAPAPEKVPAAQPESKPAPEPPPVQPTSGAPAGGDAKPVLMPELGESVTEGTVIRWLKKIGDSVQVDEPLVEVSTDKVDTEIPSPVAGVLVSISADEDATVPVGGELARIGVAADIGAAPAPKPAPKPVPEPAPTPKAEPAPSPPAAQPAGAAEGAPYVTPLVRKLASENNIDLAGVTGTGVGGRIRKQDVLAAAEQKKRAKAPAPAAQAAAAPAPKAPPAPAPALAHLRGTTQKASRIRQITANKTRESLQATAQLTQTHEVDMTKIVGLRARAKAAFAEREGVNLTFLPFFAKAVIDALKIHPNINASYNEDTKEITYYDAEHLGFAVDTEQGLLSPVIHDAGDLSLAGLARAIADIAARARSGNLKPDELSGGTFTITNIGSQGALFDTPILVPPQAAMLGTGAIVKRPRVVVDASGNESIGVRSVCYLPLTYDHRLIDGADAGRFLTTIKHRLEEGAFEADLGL
Assay type: biochemical

Q: `COc1ccc(-c2ccc(C=C3SC(=S)N(C4CCCC(C(=O)O)C4)C3=O)o2)cc1` (stereo not shown) [Compound C15, 3-{5-[1-[5-(4-methoxy-phenyl)-furan-2-yl]-methylidene]-4-oxo-2-thioxo-thiazolidin-3-yl}-cyclohexanecarboxylic acid] was tested. Which IC50 did it give?
A: Its IC50 is under 10 µM.

Q: How did the IC50 turn out when `O=C(O)C1CCC(N2C(=O)C(=Cc3ccc(-c4ccccc4Cl)o3)SC2=S)CC1` (stereo not shown) [Compound C16, 4-{5-[1-[5-(2-chloro-phenyl)-furan-2-yl]-methylidene]-4-oxo-2-thioxo-thiazolidin-3-yl}-cyclohexanecarboxylic acid] was run?
A: The IC50 was under 10 µM.

Q: `O=C(O)C1CCC(N2C(=O)C(=Cc3ccc(-c4cccc(C(F)(F)F)c4)o3)SC2=S)CC1` (stereo not shown) [Compound C17, 4-{5-[1-[5-(3-trifluoromethyl-phenyl)-furan-2-yl]-methylidene]-4-oxo-2-thioxo-thiazolidin-3-yl}-cyclohexanecarboxylic acid] was tested. Which IC50 did it give?
A: The IC50 was under 10 µM.

Q: How did the IC50 turn out when `O=C(O)C1CCC(N2C(=O)C(=Cc3ccc(-c4ccc(Cl)cc4)o3)SC2=S)CC1` (stereo not shown) [Compound C18, 4-{5-[1-[5-(4-chloro-phenyl)-furan-2-yl]-methylidene]-4-oxo-2-thioxo-thiazolidin-3-yl}-cyclohexanecarboxylic acid] was run?
A: Its IC50 is under 10 µM.

Q: For `COc1ccc(-c2ccc(C=C3SC(=S)N(C4CCCC(C(=O)O)C4)C3=O)o2)c(OC)c1` (stereo not shown) [Compound C19, 3-{5-[1-[5-(2,4-dimethoxy-phenyl)-furan-2-yl]-methylidene]-4-oxo-2-thioxo-thiazolidin-3-yl}-cyclohexanecarboxylic acid], which IC50 is on record?
A: Its IC50 is under 10 µM.

Q: `Cc1cc(Cl)ccc1-c1ccc(C=C2SC(=S)N(C3CCCC(C(=O)O)C3)C2=O)o1` (stereo not shown) [Compound C20, 3-{5-[1-[5-(4-chloro-2-methyl-phenyl)-furan-2-yl]-methylidene]-4-oxo-2-thioxo-thiazolidin-3-yl}-cyclohexanecarboxylic acid] was tested. Which IC50 did it give?
A: The IC50 was under 10 µM.

Q: With `O=C1C(=Cc2ccc(-c3ccccc3Cl)o2)SC(=S)N1C1CCC(O)CC1` (stereo not shown) [Compound C21, 5-[1-[5-(2-chloro-phenyl)-furan-2-yl]-methylidene]-3-(4-hydroxy-cyclohexyl)-2-thioxo-thiazolidin-4-one] as the compound, how does the IC50 read?
A: Its IC50 is 11 to 40 µM.

Q: For `O=C1C(=Cc2ccc(-c3ccc(Cl)cc3)o2)SC(=S)N1C1CCC(O)CC1` (stereo not shown) [Compound C22, 5-[1-[5-(4-chloro-phenyl)-furan-2-yl]-methylidene]-3-(4-hydroxy-cyclohexyl)-2-thioxo-thiazolidin-4-one], which IC50 is on record?
A: Its IC50 is 11 to 40 µM.

Q: How did the IC50 turn out when `Cc1cccc(C)c1-c1ccc(C=C2SC(=S)N(C3CCCC(C(=O)O)C3)C2=O)o1` (stereo not shown) [Compound C23, 3-{5-[5-(2,6-Dimethyl-phenyl)-furan-2-ylmethylene]-4-oxo-2-thioxo-thiazolidin-3-yl}-cyclohexanecarboxylic acid] was run?
A: The IC50 was 11 to 40 µM.

Q: With `Cc1ccccc1-c1cccc(C=C2SC(=S)N(C3CCCC(C(=O)O)C3)C2=O)c1` (stereo not shown) [Compound C24, 3-{5-[1-(2′-methyl-biphenyl-3-yl)-methylidene]-4-oxo-2-thioxo-thiazolidin-3-yl}cyclohexanecarboxylic acid] as the compound, how does the IC50 read?
A: Its IC50 is 11 to 40 µM.

Q: How did the IC50 turn out when `COc1cc(F)ccc1-c1ccc(C=C2SC(=S)N(C3CCCC(C(=O)O)C3)C2=O)o1` (stereo not shown) [Compound C25, 3-{5-[1-[5-(4-fluoro-2-methoxy-phenyl)-furan-2-yl]-methylidene]-4-oxo-2-thioxo-thiazolidin-3-yl}-cyclohexanecarboxylic acid] was run?
A: The IC50 was under 10 µM.

Q: Which IC50 does the source give for `COc1ccc(-c2ccc(C=C3SC(=S)N(C4CCCC(C(=O)O)C4)C3=O)o2)cc1F` (stereo not shown) [Compound C26, 3-{5-[1-[5-(3-fluoro-4-methoxy-phenyl)-furan-2-yl]-methylidene]-4-oxo-2-thioxo-thiazolidin-3-yl}-cyclohexanecarboxylic acid] here?
A: Its IC50 is under 10 µM.

Q: `O=C(O)C1CCCC(N2C(=O)C(=Cc3ccc(-c4ccccc4OCc4ccccc4)o3)SC2=S)C1` (stereo not shown) [Compound C27, 3-{5-[1-[5-(2-benzyloxy-phenyl)-furan-2-yl]-methylidene]-4-oxo-2-thioxo-thiazolidin-3-yl}-cyclohexanecarboxylic acid] was tested. Which IC50 did it give?
A: The IC50 was under 10 µM.

Q: How did the IC50 turn out when `Cc1cc(C)c(-c2ccc(C=C3SC(=S)N(C4CCCC(C(=O)O)C4)C3=O)o2)c(C)c1` (stereo not shown) [Compound C28, 3-{4-Oxo-2-thioxo-5-[5-(2,4,6-trimethyl-phenyl)-furan-2-ylmethylene]-thiazolidin-3-yl}-cyclohexanecarboxylic acid] was run?
A: The IC50 was under 10 µM.

Q: Which IC50 does the source give for `Cc1cc(N(C)C)ccc1-c1ccc(C=C2SC(=S)N(C3CCCC(C(=O)O)C3)C2=O)o1` (stereo not shown) [Compound C29, 3-{5-[5-(4-Dimethylamino-2-methyl-phenyl)-furan-2-ylmethylene]-4-oxo-2-thioxo-thiazolidin-3-yl}-cyclohexanecarboxylic acid] here?
A: Its IC50 is 11 to 40 µM.

Q: Which IC50 does the source give for `CSc1ccccc1-c1ccc(C=C2SC(=S)N(C3CCCC(C(=O)O)C3)C2=O)o1` (stereo not shown) [Compound C30, 3-{5-[1-[5-(2-methylsulfanyl-phenyl)-furan-2-yl]-methylidene]-4-oxo-2-thioxo-thiazolidin-3-yl}-cyclohexanecarboxylic acid] here?
A: Its IC50 is under 10 µM.

Q: With `Cc1ccccc1-c1ccc(C=C2SC(=S)N(C3CCCC(C(=O)O)C3)C2=O)s1` (stereo not shown) [Compound C31, 3-{4-oxo-2-thioxo-5-[1-(5-o-tolyl-thiophen-2-yl)-methylidene]-thiazolidin-3-yl}-cyclohexanecarboxylic acid] as the compound, how does the IC50 read?
A: The IC50 was 11 to 40 µM.

Q: Which IC50 does the source give for `O=C(O)C1CCCC(N2C(=O)C(=Cc3ccc(-c4ccccc4Cl)s3)SC2=S)C1` (stereo not shown) [Compound C32, 3-{4-oxo-2-thioxo-5-[1-(5-(2-chloro-phenyl)-thiophen-2-yl)-methylidene]-thiazolidin-3-yl}-cyclohexanecarboxylic acid] here?
A: Its IC50 is under 10 µM.

Q: Which IC50 does the source give for `O=C(O)C1CCCC(N2C(=O)C(=Cc3ccccc3OCc3ccccc3Cl)SC2=S)C1` (stereo not shown) [Compound C33, 3-{5-[2-(2-Chloro-benzyloxy)-benzylidene]-4-oxo-2-thioxo-thiazolidin-3-yl}-cyclohexanecarboxylic acid] here?
A: Its IC50 is 11 to 40 µM.

Q: Which IC50 does the source give for `O=C(O)C1CCCC(N2C(=O)C(=Cc3ccc(-c4ccccc4Oc4ccccc4)o3)SC2=S)C1` (stereo not shown) [Compound C34, 3-{4-oxo-5-[1-[5-(2-phenoxy-phenyl)-furan-2-yl]-methylidene]-2-thioxo-thiazolidin-3-yl}-cyclohexanecarboxylic acid] here?
A: Its IC50 is under 10 µM.

Q: How did the IC50 turn out when `O=C(O)C1CCCC(N2C(=O)C(=Cc3ccc(-c4ccccc4F)s3)SC2=S)C1` (stereo not shown) [Compound C35, 3-{5-[1-[5-(2-fluoro-phenyl)-thiophen-2-yl]-methylidene]-4-oxo-2-thioxo-thiazolidin-3-yl}-cyclohexanecarboxylic acid] was run?
A: Its IC50 is 11 to 40 µM.

Q: For `CCc1ccc(-c2ccc(C=C3SC(=S)N(C4CCCC(C(=O)O)C4)C3=O)o2)cc1` (stereo not shown) [Compound C36, 3-{5-[1-[5-(4-ethyl-phenyl)-furan-2-yl]-methylidene]-4-oxo-2-thioxo-thiazolidin-3-yl}-cyclohexanecarboxylic acid], which IC50 is on record?
A: The IC50 was under 10 µM.

Q: With `O=C(O)C1CCCC(N2C(=O)C(=Cc3ccc(-c4ccc(C(F)(F)F)cc4)o3)SC2=S)C1` (stereo not shown) [Compound C37, 3-{4-oxo-2-thioxo-5-[1-[5-(4-trifluoromethyl-phenyl)-furan-2-yl]-methylidene]-thiazolidin-3-yl}-cyclohexanecarboxylic acid] as the compound, how does the IC50 read?
A: The IC50 was under 10 µM.

Q: `O=C(O)C1CCCC(N2C(=O)C(=Cc3ccc(-c4cccc(-c5ccccc5)c4)o3)SC2=S)C1` (stereo not shown) [Compound C38, 3-{5-[1-(5-biphenyl-3-yl-furan-2-yl)-methylidene]-4-oxo-2-thioxo-thiazolidin-3-yl}-cyclohexanecarboxylic acid] was tested. Which IC50 did it give?
A: Its IC50 is under 10 µM.

Q: `CC(=O)Nc1ccc(-c2ccc(C=C3SC(=S)N(C4CCCC(C(=O)O)C4)C3=O)o2)cc1` (stereo not shown) [Compound C39, 3-{5-[5-(4-Acetylamino-phenyl)-furan-2-ylmethylene]-4-oxo-2-thioxo-thiazolidin-3-yl}-cyclohexanecarboxylic acid] was tested. Which IC50 did it give?
A: The IC50 was under 10 µM.

Q: Which IC50 does the source give for `CC(=O)c1ccc(-c2ccc(C=C3SC(=S)N(C4CCCC(C(=O)O)C4)C3=O)o2)cc1` (stereo not shown) [Compound C40, 3-{5-[1-[5-(4-acetyl-phenyl)-furan-2-yl]-methylidene]-4-oxo-2-thioxo-thiazolidin-3-yl}-cyclohexanecarboxylic acid] here?
A: Its IC50 is under 10 µM.

Q: With `O=C(O)C1CCCC(N2C(=O)C(=Cc3ccc(-c4ccccc4F)o3)SC2=S)C1` (stereo not shown) [Compound C41, 3-{5-[1-[5-(2-fluoro-phenyl)-furan-2-yl]-methylidene]-4-oxo-2-thioxo-thiazolidin-3-yl}-cyclohexanecarboxylic acid] as the compound, how does the IC50 read?
A: The IC50 was under 10 µM.

Q: With `O=C(O)C1CCCC(N2C(=O)C(=Cc3ccc(-c4cccc(CO)c4)o3)SC2=S)C1` (stereo not shown) [Compound C42, 3-{5-[1-[5-(3-hydroxymethyl-phenyl)-furan-2-yl]-methylidene]-4-oxo-2-thioxo-thiazolidin-3-yl}-cyclohexanecarboxylic acid] as the compound, how does the IC50 read?
A: The IC50 was under 10 µM.

Q: Which IC50 does the source give for `O=C(O)C1CCCC(N2C(=O)C(=Cc3ccc(-c4ccc(F)cc4)o3)SC2=S)C1` (stereo not shown) [Compound C43, 3-{5-[1-[5-(4-fluoro-phenyl)-furan-2-yl]-methylidene]-4-oxo-2-thioxo-thiazolidin-3-yl}-cyclohexanecarboxylic acid] here?
A: Its IC50 is under 10 µM.

Q: For `O=C(O)C1CCC(N2C(=O)C(=Cc3ccc(-c4ccccc4F)o3)SC2=S)CC1` (stereo not shown) [Compound C44, 4-{5-[1-[5-(2-fluoro-phenyl)-furan-2-yl]-methylidene]-4-oxo-2-thioxo-thiazolidin-3-yl}-cyclohexanecarboxylic acid], which IC50 is on record?
A: The IC50 was under 10 µM.

Q: For `Cc1ccc(-c2ccc(C=C3SC(=S)N(C4CCC(C(=O)O)CC4)C3=O)o2)cc1` (stereo not shown) [Compound C45, 4-{4-oxo-2-thioxo-5-[1-(5-p-tolyl-furan-2-yl)-methylidene]-thiazolidin-3-yl}-cyclohexanecarboxylic acid], which IC50 is on record?
A: Its IC50 is under 10 µM.
